Data on 4 compounds can be found in patent EP1108430A1, “CALCIUM CHANNEL ANTAGONISTS” (Nippon Shinyaku Co., Ltd., priority 1998, dated 2000).

For test [1], the system named is mouse cerebral cortex-derived primary cultured neurons. The experiment in a line: Elevation of intracellular calcium ion concentration under high-potassium stimulation (fura-2/AM 2-wavelength fluorescence). In kind it is cell-based. The settings on record: 1 - 30 µM; added 10 minutes before the second stimulation; Fig. 2; Dunnett's test, p<0.01. How it is done:
In the dish (the bottom opening fitted with cover glass) used for the measurement of calcium ion concentration, neurons on day 5 of culture were allowed to take up the fluorescent calcium probe fura-2/AM before determination. Thus, cultured neurons were incubated in 10 mM HEPES-NaOH buffer (pH 7.05) containing 10 µM fura-2/AM, 5.4 mM KC1, 130 mM NaCl, 2.5 mM CaCl2 and 5.5 mM D-glucose at 37°C for 30 minutes to let fura-2/AM taken up in the cells. Thereafter, incubation was further continued for 30 minutes, whereby the fura-2/AM taken up in the cells was converted to fura-2 by endogenous esterase activity. […]
The calcium ion concentration was determined by the method of Grynkiewicz et al. (1985). Thus, by fluorescent microscope-image processing, the calcium ion concentration was determined from the fluorescence intensities of fura - 2/Ca^2+ at the exciting wavelengths of 340 nm and 380 nm. Using Argus-50/CA System (Hamamatsu Photonics), a calibration curve constructed beforehand was transformed to find the intracellular calcium ion concentration from the fluorescence intensity ratio.
The high-potassium stimulus was given twice, 15 minutes apart and for 15 seconds each, and the ratio of increase in free calcium ion concentration in response to the stimulations was calculated. […]
For orientation: A change in cytosolic calcium serves as a functional read-out for many receptors and channels.

The subject of test [2] is dopamine release from the rat striatum. The test can be described thus: In vivo dopamine release from the striatum (microdialysis). The following applies: for effect on dopamine release: rat, in vivo. The method, then: The release of dopamine from the rat striatum was measured by the in vivo microdialysis method. A microdialysis probe fitted with a microinjection cannula was inserted into the striatum of an 8∼10·week·old male SD rat and the striatum was perfused with Ringer's solution at a rate of 2 µl/min.
Beginning 2 hours after the start of perfusion, the perfusate was recovered at a 20-minute interval and the dopamine in each perfusate was measured with a high-performance liquid chromatography-electrochemical detector. The drug was perfused into the striatum through the microdialysis probe or microinjected into the striatum via the microinjection cannula. The effect of the drug on the basal dopamine release was evaluated by comparing the values before and after stimulation and a statistical analysis was made by Dunnett's test. Then, to evaluate the effect of Compound 1A on KCl·stimulated dopamine release, the amount of dopamine released in the presence of Compound 1A (10 µM) (ipsilateral striatum) was compared with the amount of KCl-stimulated dopamine release in the absence of Compound 1A (contralateral striatum) and the difference was statistically analyzed by paired t-test.
Therefore, with a microdialysis probe inserted bilaterally, one of the striatum was perfused with Ringer's solution (control side) and the other striatum with Compound 1A (10 µM). K^+ stimulation, 25∼80 mM, was consecutively given at a 20-minute interval.

Another test deals with L-type Ca^2+ channel. Type of test: cell-based, mouse. The following applies: 3∼30 µM; Dunnett's test; Fig. 1.
A further test addresses P/Q-type Ca^2+ channel (Mus musculus, UniProt P97445). The test can be described thus: KCl-induced NOS activation in the presence of 1 µM nifedipine (response mediated by the P/Q-type channel). In kind it is cell-based.
Test [3] has as its system nitric oxide synthase (NOS). The experiment in a line: cells. In kind it is cell-based, mouse.

Sequence of P/Q-type Ca^2+ channel (P97445 whole entry): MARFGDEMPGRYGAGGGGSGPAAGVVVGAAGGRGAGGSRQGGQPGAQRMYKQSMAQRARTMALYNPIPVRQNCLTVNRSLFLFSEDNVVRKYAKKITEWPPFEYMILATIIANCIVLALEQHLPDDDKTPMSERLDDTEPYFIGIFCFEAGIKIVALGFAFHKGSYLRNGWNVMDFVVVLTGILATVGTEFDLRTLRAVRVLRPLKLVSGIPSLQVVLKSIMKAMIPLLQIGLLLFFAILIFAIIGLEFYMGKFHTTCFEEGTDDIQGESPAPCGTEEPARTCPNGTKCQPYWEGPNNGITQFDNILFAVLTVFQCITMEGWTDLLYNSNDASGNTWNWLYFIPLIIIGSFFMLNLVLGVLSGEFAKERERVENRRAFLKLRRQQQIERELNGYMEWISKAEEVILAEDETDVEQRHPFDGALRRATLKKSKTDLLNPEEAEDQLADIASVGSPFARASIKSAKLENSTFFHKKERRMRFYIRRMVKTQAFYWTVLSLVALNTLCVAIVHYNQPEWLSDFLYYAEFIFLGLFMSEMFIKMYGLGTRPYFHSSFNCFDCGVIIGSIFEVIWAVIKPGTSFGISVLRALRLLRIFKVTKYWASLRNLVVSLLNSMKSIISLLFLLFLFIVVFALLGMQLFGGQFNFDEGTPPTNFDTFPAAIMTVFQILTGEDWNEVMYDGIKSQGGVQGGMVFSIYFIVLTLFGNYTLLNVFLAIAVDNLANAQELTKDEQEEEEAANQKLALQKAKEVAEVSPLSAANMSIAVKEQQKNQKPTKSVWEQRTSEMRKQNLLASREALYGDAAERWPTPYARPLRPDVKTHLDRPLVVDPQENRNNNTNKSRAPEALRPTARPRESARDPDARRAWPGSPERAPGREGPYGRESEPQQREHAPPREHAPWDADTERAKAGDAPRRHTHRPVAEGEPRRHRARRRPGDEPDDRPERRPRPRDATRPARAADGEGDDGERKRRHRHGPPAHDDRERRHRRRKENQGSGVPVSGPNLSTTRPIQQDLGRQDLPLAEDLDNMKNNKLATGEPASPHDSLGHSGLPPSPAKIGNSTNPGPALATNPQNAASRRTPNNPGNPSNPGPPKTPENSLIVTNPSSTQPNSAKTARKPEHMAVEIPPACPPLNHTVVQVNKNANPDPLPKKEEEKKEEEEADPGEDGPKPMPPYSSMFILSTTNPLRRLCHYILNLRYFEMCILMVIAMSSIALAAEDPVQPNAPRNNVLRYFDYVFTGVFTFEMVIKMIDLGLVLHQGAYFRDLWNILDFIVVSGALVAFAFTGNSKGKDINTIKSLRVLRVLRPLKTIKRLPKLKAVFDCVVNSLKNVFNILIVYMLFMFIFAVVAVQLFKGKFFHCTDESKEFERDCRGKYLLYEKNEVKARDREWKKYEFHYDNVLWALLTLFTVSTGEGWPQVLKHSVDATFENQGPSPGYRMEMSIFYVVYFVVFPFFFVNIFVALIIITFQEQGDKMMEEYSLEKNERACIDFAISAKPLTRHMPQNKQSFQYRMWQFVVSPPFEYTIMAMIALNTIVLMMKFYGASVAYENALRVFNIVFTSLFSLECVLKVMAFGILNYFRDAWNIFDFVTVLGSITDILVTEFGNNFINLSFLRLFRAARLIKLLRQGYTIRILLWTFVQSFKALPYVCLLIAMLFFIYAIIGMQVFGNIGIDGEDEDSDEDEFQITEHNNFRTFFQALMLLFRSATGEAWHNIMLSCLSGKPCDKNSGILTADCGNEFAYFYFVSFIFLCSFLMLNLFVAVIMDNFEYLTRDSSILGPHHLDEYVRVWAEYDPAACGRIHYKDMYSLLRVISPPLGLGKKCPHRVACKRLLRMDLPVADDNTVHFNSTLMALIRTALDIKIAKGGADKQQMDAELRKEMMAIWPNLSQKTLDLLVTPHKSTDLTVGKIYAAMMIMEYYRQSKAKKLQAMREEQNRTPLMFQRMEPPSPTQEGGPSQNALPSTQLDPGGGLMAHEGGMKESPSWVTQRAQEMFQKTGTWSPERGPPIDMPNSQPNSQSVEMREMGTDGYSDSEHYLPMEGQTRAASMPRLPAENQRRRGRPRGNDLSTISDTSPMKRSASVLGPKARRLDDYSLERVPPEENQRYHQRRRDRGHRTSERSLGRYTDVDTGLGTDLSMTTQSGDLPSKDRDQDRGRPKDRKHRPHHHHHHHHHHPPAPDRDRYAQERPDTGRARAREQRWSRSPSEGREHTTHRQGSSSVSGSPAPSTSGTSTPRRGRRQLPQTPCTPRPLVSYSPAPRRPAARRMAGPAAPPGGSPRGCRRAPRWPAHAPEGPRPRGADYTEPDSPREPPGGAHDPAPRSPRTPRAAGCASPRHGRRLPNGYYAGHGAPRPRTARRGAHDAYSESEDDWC

`Cc1nc(OCCCCCN2CCCCC2)cc(-c2ccc(F)cc2)n1` [Compound 1A, 4-(4-fluorophenyl)-2-methyl-6-(5-piperidinopentyloxy)pyrimidine]: the “inhibition of the high-potassium-stimulated increase in intracellular calcium ion concentration” value in test [1] is listed as “inhibit the high-potassium-stimulated increase in intracellular calcium ion concentration in a concentration-dependent manner”. Moreover, the “inhibition of dopamine release at 80 mM KCl” value in test [2] (10 µM perfused into the striatum, 80 mM KCl, Fig. 3, p<0.05, paired t-test) is on record as “inhibited dopamine release significantly”. Further, the “inhibitory effect on dopamine release under K^+ stimulation” value in test [2] (10 µM perfused into the striatum, K^+ stimulation 25∼80 mM at a 20-minute interval, versus contralateral control side) is listed as “marked inhibitory effects on dopamine release with an increasing potassium concentration”. For the same compound, the “inhibition of the NOS activation in the presence of 0.1 µM ω-agatoxin IVA (the response mediated by the L-type Ca^2+ channel)” value with L-type Ca^2+ channel is “significant (P<0.01) and concentration-dependent inhibitions”. Besides, at P/Q-type Ca^2+ channel (10 µM), the “inhibition of the response mediated by the P/Q-type Ca^2+ channel (NOS activation in the presence of 1 µM nifedipine)” value is “completely inhibited”. Besides, the “inhibition of the NOS activation in the presence of 1 µM nifedipine (the response mediated by the P/Q-type Ca^2+ channel)” value on P/Q-type Ca^2+ channel (3∼30 µM, Dunnett's test, Fig. 1) was “significant (P<0.01) and concentration-dependent inhibitions”.
Usually inhibition stands for the relative decrease from the control value, in per cent. With `COC(=O)C1=C(C)NC(C)=C(C(=O)OC)C1c1ccccc1[N+](=O)[O-]` [nifedipine], the inhibition at 1 µM in test [3] (Mus musculus, Neuron, read-out: inhibition of NOS activated on high-potassium stimulation of neurons) was approximately 56%.
ω-agatoxin IVA [reference compound]: in test [3] (0.1 µM), the “inhibition of NOS activated on high-potassium stimulation of neurons” value is reported as “about 53%”. The “effect on dopamine release” value in test [2] was “significant decrease (p<0.01)”.
Turning to ω-conotoxin GVIA [reference compound], the “effect on the NOS activation by KCl stimulation” value in test [3] (5 µM) is reported as “substantially no effect”. Further, in test [2], the “effect on dopamine release” value was “significant decrease (p<0.01)”.
